Reference: the supplement of paper PMC10627819

Tests used:
Settings in all cases: main component drawn
[1] = test system: B. subtilis 168; experiment: fitness (endpoint OD595 vs no drug) (fraction); higher = more growth
Procedure, shortened: (§1)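 At 37 °C, bacteria in TSB, LB Lennox or CY were grown in 384-well plates from a starting OD595 of 0.01. OD595 was measured every 30 min for 14 h, with the first reading used as background. Fitness is the optical density at the switch to stationary phase as a fraction of the robust mean of no-drug control wells, capped at 1.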

[2] = test system: S. aureus Newman; experiment: as above
Procedure, shortened: as §1

[3] = test system: S. aureus DSM 20231; experiment: Bliss interaction score (quartile over a dose matrix) (fitness difference); higher = more antagonism (negative = synergy)
Procedure, shortened: (§2)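 Fitness is OD595 at stationary-phase entry relative to the plate's robust no-drug mean, capped at 1. Single-drug fitness was inferred from combinations. The Bliss score is observed minus product-expected fitness, summarised by quartiles over technical, biological and donor/recipient replicates.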

[4] = test system: B. subtilis 168; experiment: as above
Procedure, shortened: as §2

[5] = test system: S. aureus Newman; experiment: as above
Procedure, shortened: as §2

[6] = test system: S. pneumoniae D39V; experiment: as above
Procedure, shortened: as §2
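For Bliss interaction score (quartile over a dose matrix) in this document: first quartile when negative (synergy) and third quartile when positive (antagonism).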

CC[C@H](C)[C@H](N)C1=N[C@H](C(=O)N[C@@H](CC(C)C)C(=O)N[C@H](CCC(=O)O)C(=O)N[C@H](C(=O)N[C@H]2CCCCNC(=O)[C@H](CC(N)=O)NC(=O)[C@@H](CC(=O)O)NC(=O)[C@H](Cc3cnc[nH]3)NC(=O)[C@@H](Cc3ccccc3)NC(=O)[C@H]([C@@H](C)CC)NC(=O)[C@@H](CCCN)NC2=O)[C@@H](C)CC)CS1 [Bacitracin] + CC1=C(C(=O)O)N2C(=O)[C@@H](NC(=O)[C@H](N)c3ccccc3)[C@H]2SC1 [Cephalexin]
fitness
Settings | partner 0.125 µg/mL | partner 0.25 µg/mL | partner 0.5 µg/mL | partner 1 µg/mL
[1], first compound 37.5 µg/mL | 0.922 | 0.824 | 0.838 | –
[1], first compound 75 µg/mL | 0.884 | 0.869 | 0.904 | –
[1], first compound 150 µg/mL | 0.72 | – | – | –
[2], first compound 18.75 µg/mL | – | 0.798 | 0.785 | 0.791
[2], first compound 75 µg/mL | – | 0.0499 | 0.0405 | 0.045

[1], partner 1 µg/mL, one replicate
Settings | fitness
first compound 37.5 µg/mL | 0.874
first compound 75 µg/mL | 0.886
first compound 150 µg/mL | 0.53

Settings | Bliss interaction score
[3] | 0.0487
[4] | 0.0854
[5] | 0.129
[6] | -0.0987

CC[C@H](C)[C@H](N)C1=N[C@H](C(=O)N[C@@H](CC(C)C)C(=O)N[C@H](CCC(=O)O)C(=O)N[C@H](C(=O)N[C@H]2CCCCNC(=O)[C@H](CC(N)=O)NC(=O)[C@@H](CC(=O)O)NC(=O)[C@H](Cc3cnc[nH]3)NC(=O)[C@@H](Cc3ccccc3)NC(=O)[C@H]([C@@H](C)CC)NC(=O)[C@@H](CCCN)NC2=O)[C@@H](C)CC)CS1 [Bacitracin] + CC1=C\[C@@H](O)CC(=O)Cc2nc(co2)C(=O)N2CCC=C2C(=O)O[C@H](C(C)C)[C@H](C)/C=C/C(=O)NC\C=C\1 [Virginiamycin M1]
fitness
Settings | partner 0.0625 µg/mL | partner 0.125 µg/mL | partner 0.25 µg/mL
[1], first compound 37.5 µg/mL | 0.986 | 0.926 | 0.927
[1], first compound 75 µg/mL | 0.994 | 0.861 | 0.951
[2], first compound 18.75 µg/mL | 0.698 | 0.698 | 0.705
[2], first compound 37.5 µg/mL | 0.146 | 0.215 | 0.215
[2], first compound 75 µg/mL | 0.037 | 0.0313 | 0.0704

fitness, [2], one replicate
Settings | first compound 18.75 µg/mL | first compound 37.5 µg/mL | first compound 75 µg/mL
partner 0.5 µg/mL | 0.693 | 0.519 | 0.0148
partner 1 µg/mL | 0.72 | 0.368 | 0.0101
partner 2 µg/mL | 0.594 | 0.127 | 0.0147

Settings | Bliss interaction score
[3] | -0.0463
[4] | 0.0905
[5] | 0.0498
[6] | 0.094

CC[C@H](C)[C@H](N)C1=N[C@H](C(=O)N[C@@H](CC(C)C)C(=O)N[C@H](CCC(=O)O)C(=O)N[C@H](C(=O)N[C@H]2CCCCNC(=O)[C@H](CC(N)=O)NC(=O)[C@@H](CC(=O)O)NC(=O)[C@H](Cc3cnc[nH]3)NC(=O)[C@@H](Cc3ccccc3)NC(=O)[C@H]([C@@H](C)CC)NC(=O)[C@@H](CCCN)NC2=O)[C@@H](C)CC)CS1 [Bacitracin] + CC(C1CCC(C(O1)OC2C(CC(C(C2O)OC3C(C(C(CO3)(C)O)NC)O)N)N)N)NC [Gentamicin]
fitness
Settings | first compound 18.75 µg/mL | first compound 37.5 µg/mL | first compound 75 µg/mL | first compound 150 µg/mL
[1], partner 0.125 µg/mL | – | – | – | 0.0432
[1], partner 0.25 µg/mL | – | 0.0865 | 0.0452 | 0.0472
[2], partner 0.375 µg/mL | 0.591 | 0.122 | 0.0738 | –
[2], partner 0.5 µg/mL | 0.759 | 0.625 | 0.0785 | –
[2], partner 0.75 µg/mL | 0.461 | 0.137 | 0.0623 | –
[2], partner 1 µg/mL | 0.803 | – | 0.0125 | –
[2], partner 1.5 µg/mL | – | 0.163 | 0.0666 | –
[2], partner 2 µg/mL | 0.842 | – | 0.0163 | –

Settings | Bliss interaction score
[3] | -0.0565
[4] | -0.298
[5] | 0.102
[6] | -0.149

CC[C@H](C)[C@H](N)C1=N[C@H](C(=O)N[C@@H](CC(C)C)C(=O)N[C@H](CCC(=O)O)C(=O)N[C@H](C(=O)N[C@H]2CCCCNC(=O)[C@H](CC(N)=O)NC(=O)[C@@H](CC(=O)O)NC(=O)[C@H](Cc3cnc[nH]3)NC(=O)[C@@H](Cc3ccccc3)NC(=O)[C@H]([C@@H](C)CC)NC(=O)[C@@H](CCCN)NC2=O)[C@@H](C)CC)CS1 [Bacitracin] + CCC[C@@H]1C[C@@H](C(=O)N[C@@H]([C@H]2O[C@H](SC)[C@H](O)[C@@H](O)[C@H]2O)[C@H](C)Cl)N(C)C1 [Clindamycin]
fitness, [1], one replicate
Settings | first compound 37.5 µg/mL | first compound 75 µg/mL | first compound 150 µg/mL
partner 0.0039 µg/mL | 0.995 | ≥ 1 | ≥ 1
partner 0.0078 µg/mL | 0.878 | 0.891 | 0.845
partner 0.0156 µg/mL | 0.831 | 0.861 | 0.871

fitness
Settings | first compound 18.75 µg/mL | first compound 37.5 µg/mL | first compound 75 µg/mL | first compound 150 µg/mL
[1], partner 0.0625 µg/mL | – | 0.649 | 0.568 | –
[1], partner 0.125 µg/mL | – | 0.42 | 0.364 | 0.108
[1], partner 0.25 µg/mL | – | 0.363 | 0.241 | 0.0433
[2], partner 0.0312 µg/mL | – | – | 0.0388 | –
[2], partner 0.0625 µg/mL | – | 0.067 | 0.0139 | –
[2], partner 0.125 µg/mL | 0.0166 | 0.0173 | 0.0265 | –

Settings | Bliss interaction score
[3] | 0.0155
[4] | -0.0851
[5] | -0.052
[6] | -0.071

CC[C@H](C)[C@H](N)C1=N[C@H](C(=O)N[C@@H](CC(C)C)C(=O)N[C@H](CCC(=O)O)C(=O)N[C@H](C(=O)N[C@H]2CCCCNC(=O)[C@H](CC(N)=O)NC(=O)[C@@H](CC(=O)O)NC(=O)[C@H](Cc3cnc[nH]3)NC(=O)[C@@H](Cc3ccccc3)NC(=O)[C@H]([C@@H](C)CC)NC(=O)[C@@H](CCCN)NC2=O)[C@@H](C)CC)CS1 [Bacitracin] + CCN(CC)CCOC(=O)c1ccc(N)cc1 [Procaine]
fitness
Settings | partner 85.5 µg/mL | partner 171 µg/mL | partner 342 µg/mL
[1], first compound 37.5 µg/mL | 0.88 | 0.939 | 0.874
[1], first compound 75 µg/mL | 0.899 | 0.879 | 0.871
[1], first compound 150 µg/mL | 0.753 | 0.752 | 0.619
[2], first compound 18.75 µg/mL | 0.792 | 0.738 | 0.749
[2], first compound 75 µg/mL | 0.0486 | 0.0139 | 0.0176

Settings | Bliss interaction score
[3] | 0.0191
[4] | 0.116
[5] | 0.0965
[6] | -0.0511

CC[C@H](C)[C@H](N)C1=N[C@H](C(=O)N[C@@H](CC(C)C)C(=O)N[C@H](CCC(=O)O)C(=O)N[C@H](C(=O)N[C@H]2CCCCNC(=O)[C@H](CC(N)=O)NC(=O)[C@@H](CC(=O)O)NC(=O)[C@H](Cc3cnc[nH]3)NC(=O)[C@@H](Cc3ccccc3)NC(=O)[C@H]([C@@H](C)CC)NC(=O)[C@@H](CCCN)NC2=O)[C@@H](C)CC)CS1 [Bacitracin] + CN1C2=CC=CC=C2N=C3C1=CC=CC3=O [Pyocyanin]
fitness
Settings | first compound 18.75 µg/mL | first compound 37.5 µg/mL | first compound 75 µg/mL | first compound 150 µg/mL
[1], partner 1.25 µg/mL | – | 0.9 | 0.931 | 0.8
[1], partner 2.5 µg/mL | – | 0.839 | 0.853 | 0.682
[1], partner 5 µg/mL | – | 0.614 | 0.594 | 0.419
[2], partner 1.25 µg/mL | 0.574 | 0.208 | 0.04 | –
[2], partner 2.5 µg/mL | 0.496 | 0.18 | 0.0276 | –
[2], partner 5 µg/mL | 0.281 | 0.148 | 0.0716 | –

Settings | Bliss interaction score
[3] | 0.0748
[4] | 0.0566
[5] | -0.0473
[6] | 0.0487
